Measured values: patent US11542266B1, “Substituted piperidines as BTK inhibitors” (HAISCO PHARMACEUTICALS PTE. LTD., priority 2019, dated 2023)

Tests used:
[1] = tested on: OCI-LY10 cells; test: Inhibition of cell proliferation, OCI-LY10 cells (Cell Viability Assay, 72 h); format: cell-based; conditions: Homo sapiens
Procedure: (§1) OCI-LY10 and TMD-8 cells, in the culture medium of RPMI1640+10% FBS, were cultured in an incubator at 37° C. under 5% CO2. Cells were plated in a 96-well plate. Specifically, OCI-LY10 cells were at 10000/well, and TMD-8 cells were at 8000/well, with 90 μL/well. These cells were cultured at 37° C. under 5% CO2 overnight. On the next day, 10 μL of the compounds at different concentrations were added to each well. There were 3 replicate wells for each concentration, and the last column, added with DMSO, was used as a vehicle control group. The cultures were continued for 72 hours at 37° C. under 5% CO2. After 72 hours, 50 μL of detection reagent (Cell Viability Assay, Promega, G7573) was added to each well, and the cultures were uniformly mixed for 2 minutes, and incubated at room temperature for 10 minutes. The fluorescence signal value was measured with an Envision2104 plate reader (PerkinElmer). The inhibition rate was calculated using formula (2), wherein RLUcompound was the readout of the drug treated group, RLUcontrol was the average value of the vehicle control group, and RLUblank was the average value of the cell-free wells. The IC50 value was calculated using GraphPad Prism software. IR (%)=(1−(RLUcompound-RLUblank)/(RLUcontrol-RLUblank))*100% formula (2)

[2] = target: BTK protein (Mus musculus (Mouse), UniProt P35991); test: Detection of BTK protein degradation in spleen of mice; format: in vivo; conditions: po, 72 h, female ICR mice, 3 consecutive days of intragastric administration, read-out: DD50 value of compounds on BTK protein degradation in spleen of mice
Chain of BTK protein (P35991 whole entry): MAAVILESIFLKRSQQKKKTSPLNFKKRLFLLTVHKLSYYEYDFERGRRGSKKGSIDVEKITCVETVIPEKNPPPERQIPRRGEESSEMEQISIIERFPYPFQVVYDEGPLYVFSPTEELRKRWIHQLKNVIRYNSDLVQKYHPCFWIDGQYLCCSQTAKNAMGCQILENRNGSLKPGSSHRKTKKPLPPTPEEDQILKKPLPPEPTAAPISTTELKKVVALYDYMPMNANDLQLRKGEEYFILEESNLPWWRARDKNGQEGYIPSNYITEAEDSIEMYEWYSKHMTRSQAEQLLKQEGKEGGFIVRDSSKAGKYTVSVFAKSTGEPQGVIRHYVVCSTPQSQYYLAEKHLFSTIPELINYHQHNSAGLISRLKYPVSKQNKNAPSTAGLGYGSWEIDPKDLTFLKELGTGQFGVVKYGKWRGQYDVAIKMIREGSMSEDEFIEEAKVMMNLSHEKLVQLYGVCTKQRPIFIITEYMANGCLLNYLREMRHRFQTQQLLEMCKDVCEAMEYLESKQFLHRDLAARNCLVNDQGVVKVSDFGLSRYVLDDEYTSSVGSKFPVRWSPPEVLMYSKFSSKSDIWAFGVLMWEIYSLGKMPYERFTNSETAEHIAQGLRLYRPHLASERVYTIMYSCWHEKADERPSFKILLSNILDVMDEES
Procedure: Female ICR mice, 6-8 weeks old, were purchased from BEIJING VITAL RIVER LABORATORY ANIMAL TECHNOLOGY CO., LTD, and the experiment was started after 3 days of adaptation. After 3 consecutive days of intragastric administration of different doses of the compound, the spleen of mice was taken, the spleen cells were collected, and RIPA lysis buffer (Beyotime, Cat. P0013B) was added. The cells were lysed on ice for 15 minutes, and centrifuged at 12000 rpm at 4° C. for 10 minutes. The protein sample of the supernatant was collected, and the protein was quantified by using the BCA kit (Beyotime, Cat. P0009), and then the protein was diluted to 0.25 mg/mL. The expressions of BTK (CST, Cat. 8547S) and the internal reference β-actin (CST, Cat. 3700S) were detected using a fully automated western blot quantitative analyzer (Proteinsimple). The expression level of BTK relative to the internal reference was calculated using Compass software, and the DD50 value was calculated using Origen9.2 software according to formula (4). Specifically, the BTKadministration denoted the expression level of BTK in administration groups at different doses, and the BTKvehicle denoted the expression level of BTK in the vehicle control group. BTK %=BTKadministration/BTKvehicle×100 formula (4)

[3] = tested on: Mino cells; test: Inhibition of cell proliferation, Mino cells (Cell Viability Assay, 72 h); format: cell-based, human; conditions: Homo sapiens
Procedure, shortened: (§2)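 RPMI1640 + 10% FBS cultures seeded at 20000/well (SU-DHL-4) or 5000/well (Mino, SU-DHL-6), exposed to compound dilutions in triplicate for 72 h at 37 °C, 5% CO2, DMSO vehicle control. Viability read by luminescent reagent; IC50 from dose-response and Max inhi. % = (1 − T72 treated/T72 vehicle)×100 at top concentration.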

[4] = tested on: TMD-8 cells; test: Inhibition of cell proliferation, TMD-8 cells (Cell Viability Assay, 72 h); format: cell-based; conditions: Homo sapiens, TMD8
Procedure: as §1

[5] = Pharmacokinetic experiment in rats (i.g. vehicle 0.5% MC); format: in vivo; conditions: Sprague-Dawley (SD), rat, plasma, po, male SD rats
Procedure, shortened: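 Male SD rats (200–250 g, 6–8 weeks, n=6 per compound) were dosed once i.v. or intragastrically after a 12–14 h fast and fed 4 h post-dose. Orbital blood was drawn into EDTA-K2 tubes at 0–24 h (from 5 min i.v., from 15 min oral). Plasma was quantified by LC-MS/MS for PK parameters and bioavailability.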

[6] = Pharmacokinetic experiment in mice; format: in vivo; conditions: mouse, plasma, male ICR mice
Procedure: Objective: In this experiment, a single dose of each test compound was administered to ICR mice intravenously and intragastrically, the concentrations of the test compound in plasma of mice were measured, and the pharmacokinetic characteristics and bioavailability of the test compound in mice were evaluated.
Experimental animals: Male ICR mice, 20-25 g, 6-8 weeks old, 24 mice/compound. The experimental animals were purchased from CHENGDU DOSSY EXPERIMENTAL ANIMALS CO., LTD.
Experimental method: On the day of the experiment, 24 ICR mice were randomly grouped according to their body weight. The animals were fasted with water available for 12 to 14 hours one day before the administration of a test compound, and were fed 4 hours after the administration.
Sampling: Before and after the administration, 0.06 ml of blood was taken from the orbit of the mice under isoflurane anesthesia, and placed in an EDTAK2 centrifuge tube. Centrifugation was carried out at 5000 rpm at 4° C. for 10 min and the plasma was collected.
Time points for plasma collection in G1 group: 0, 5 min, 15 min, 30 min, 1 h, 2 h, 4 h, 6 h, 8 h, and 24 h;
Time points for plasma collection in G2 group: 0, 15 min, 30 min, 1 h, 2 h, 4 h, 6 h, 8 h, and 24 h;
Before analysis and detection, all samples were stored at −80° C. The samples were analyzed quantitatively by LC-MS/MS.

[7] = tested on: SU-DHL-6 cells; test: Inhibition of cell proliferation, SU-DHL-6 cells (Cell Viability Assay, 72 h); format: cell-based; conditions: Homo sapiens
Procedure, shortened: as §2

[8] = tested on: SU-DHL-4 cells; test: Inhibition of cell proliferation, SU-DHL-4 cells (Cell Viability Assay, 72 h); format: cell-based, human; conditions: Homo sapiens
Procedure, shortened: as §2

IC50 [1]: 5 nM
ED50 [2]: 3.8 mg/kg
bioavailability ([5]; i.g. 20 mg/kg (0.5% MC) vs i.v. 5 mg/kg): 6.57 ± 0.77%
AUC(0-t) ([5]; i.g. 20 mg/kg, vehicle 0.5% MC, read-out: AUC0-t): 2340 ± 274 ng·h/mL
bioavailability ([6]; oral, i.g. 10 mg/kg vs i.v. 5 mg/kg): 10.8%
AUC(0-t) ([6]; po, i.g. 10 mg/kg, vehicle 0.5% MC): 2430 ng·h/mL
IC50 [7]: 744 nM
IC50 [8]: 367 nM
Structure (SMILES): Nc1ncnc2c1c(-c1ccc(Oc3ccccc3)cc1)nn2C1CCN(C2CN(C3CN(c4ccc5c(c4)C(=O)N(C4CCC(=O)NC4=O)C5=O)C3)C2)CC1 (stereo not shown) [Compound 17, 5-[3-[3-[4-[4-amino-3-(4-phenoxyphenyl)pyrazolo[3,4-d]pyrimidin-1-yl]-1-piperidyl]azetidin-1-yl]azetidin-1-yl]-2-(2,6-dioxo-3-piperidyl)isoindoline-1,3-dione]
IC50 [3]: 20 nM
IC50 [4]: 22 nM
